These results are taken from a melting point compilation (Tetko et al.; mined from patent text by program, amines drawn as free bases though some values may be those of a salt).

In the case of `CNCC1Cc2cc(-c3ccccc3)cc(-c3ccc(F)cc3)c2O1` (stereo not drawn), the melting point (commonly the temperature, or range, at which the solid turns liquid) was greater than 250 °C.
As for `CN(C)C=C1CSc2ccc(Cl)cc2C1=O`, the melting point lay within 126 to 127 °C.
For the compound `C#Cc1cn(C2CC(O)C(CO)O2)c(=O)n(C(=O)c2ccc(C)cc2)c1=O` (stereo not drawn), the melting point lay within 176 to 179 °C.
With `O=C1Nc2cc(Cl)ccc2Sc2cscc21` the figure was 267 to 269 °C.
Take `CCN(CC(C)(C)C)c1nc2c(cc1CN(Cc1cc(C(F)(F)F)cc(C(F)(F)F)c1)c1nnn(C)n1)c(C)nn2C`: the melting point fell in the range of 72 to 73 °C.
In the case of `CCCCC1=C([N+](=O)[O-])C(c2cccc(Cl)c2Cl)c2c[nH]nc2N1` (stereo not drawn) it was 220 °C; in that of `CCOC(=O)C(NC(=O)CI)C(=O)OCC`, 95 to 97 °C.
The compound `Cc1ccccc1-c1cn(C)cc(-c2cccc(Cl)c2)c1=O` displayed a melting point of 171 to 173 °C.
`CCC(=O)Nc1nc(CN2CCC(OC(c3ccccc3)c3ccccc3)CC2)cs1` gave a melting point of 86 to 88 °C.
With `O=c1c2c(Cc3ccc([N+](=O)[O-])cc3)n[nH]c2c2cccnc2n1-c1ccccc1` the figure was 254 to 255 °C; with `COC(=O)c1nc2sc(CC(C)C)c(C)c2c(=O)[nH]1`, 173 to 175 °C; with `CCC(=O)C(=Cc1ccccc1)c1cc(C)cs1`, 98 to 99 °C.
With `C1=C(c2ccc3c(c2)OCCO3)CCC(N2CCN(Cc3ccccc3)CC2)C1` (stereo not drawn) the figure was 132 to 133 °C; with `CS(=O)(=O)c1cc([N+](=O)[O-])c(C(N)=O)cc1N1CC1`, 222 to 224 °C; with `O=C(O)C(Sc1ccccc1)c1cc(Cl)cc(Cl)c1` (stereo not drawn), 115 to 119 °C.
`CN1c2ccncc2NC(CCc2ccccc2)c2cccn21` (stereo not drawn) displayed a melting point of 92 to 94 °C.
`CCOC(=O)C(=O)C(C#N)Cc1ccccc1` (stereo not drawn) had a melting point of 80 to 83 °C.
With `CC(=Cc1ccccc1)c1ccc2c(c1)C(C)(C)CC(O)C2(C)C` (stereo not drawn) the figure was 102 to 103 °C; with `O=C1Cc2cc(C(=O)N3CCN(CCC(=O)c4ccccc4)CC3)ccc2N1`, 208 to 210 °C.
In the case of `CCOP(=O)(Cc1ccc(-c2ccccc2)cc1)OCC` it was 55 to 58 °C; in that of `CC=Cc1c(NC(=O)C(F)(F)F)ccc2c(=O)cc(C(=O)OCC)oc12`, 140 to 141 °C; in that of `CCNC(=O)OCc1cnc(C)c(OC(=O)NCC)c1`, 121 to 122 °C.
In the case of `CC(C)(C)OC(=O)NCC1(C(=O)O)CC1` it was 104 to 106 °C.
`CCCCCCN1CCN(Cc2ccc([N+](=O)[O-])cc2)C(=O)C1=O` showed a melting point of 115 to 117 °C.
In the case of `O=C(NCC1(c2ccccc2)CCCCC1)Nc1cccc(C(F)(F)F)c1` it was 147 to 151 °C; in that of `Cc1cccc(N2CCOC2=O)c1COc1cccn2c(C=O)c(C)nc12`, 242 to 244 °C; in that of `Cc1cc(-c2ccc(Cl)cc2)cn2c(C(=O)O)cnc12`, 228 °C.
In the case of `Cc1cc(Cc2cc(C(C)(C)C)cc(-n3nc4ccccc4n3)c2O)c(O)c(C(C)(C)C)c1` it was 175 °C; in that of `COc1ccc(C(=O)Nc2c(Cl)cncc2Cl)cc1OC1COCC1OC` (stereo not drawn), 175 to 177 °C; in that of `CCOC(=O)C(=CNc1c[nH]nn1)C(=O)c1cc(F)c(F)cc1F`, 157 to 159 °C.
With `CCCCCCCC(=O)CCC(C)=O` the figure was 40 to 41 °C; with `CCOC(=O)CCc1ccc2c(c1)CC(NC(=O)OC(C)(C)C)CC2` (stereo not drawn), 100 to 102 °C.
For the compound `NC1SC=CN1Sc1ccc(F)cc1F` (stereo not drawn), the melting point lay within 116 to 117 °C.
As for `FC(F)(F)CC1(CC2(CC(F)(F)F)N=c3cc(Cl)c(Cl)cc3=N2)N=c2cc(Cl)c(Cl)cc2=N1`, the melting point lay within 235 to 237 °C.
On to `Cc1ccc2c(-c3cnc4[nH]cc(C(=O)N[C@H](C)C(=O)N5CC(C#N)C5)c4n3)nn(C)c2n1`, for which the melting point lay within 275 to 285 °C.
With `COc1cccc2c(=O)c3c(O)cc(OCC4CO4)cc3oc12` (stereo not drawn) the figure was 182 °C; with `O=S(=O)(NCCc1ccc(Cc2nnn[nH]2)cc1)c1ccc(Cl)cc1`, 168 to 169 °C; with `CCC(=O)Nc1cc(-c2c(-c3ccc(F)c(C)c3)nc3cccnn23)ccn1`, 166 to 167 °C.
`Cc1sc(-c2ccccc2)nc1COc1cc(COc2ncccc2C=O)on1` registered a melting point of 123 to 124 °C.
In the case of `CCOC(C(=O)O)c1ccc2c(c1)C(C)(C)CCC2(C)C` (racemic) it was 106 to 109 °C; in that of `C#Cc1cccc(-c2cccnc2F)c1`, 45 to 47 °C.
With `CCOCc1nc2c(N)nc3cc(CCCN4CCOCC4)ccc3c2n1CC(C)(C)O` the figure was 132 to 133 °C.
With `CC(=O)n1nc(-c2ccc(Cl)cc2)nc1C` the figure was 132 to 133 °C; with `O=C1NC(=O)C(c2ccccc2Cl)O1` (stereo not drawn), 106 to 108 °C.
For `Cc1ccc2c(C(=O)NCCc3ccccc3)c(Cl)ccc2n1`, the melting point was in the range of 170 to 172 °C.
In the case of `CC(=O)c1cccc(NC(=O)NCC(=O)N(CC(=O)N(C)c2ccccc2)c2ccccc2)c1` it was 170 °C; in that of `CCCCCCOc1ccc2cc([C@H]3CC[C@H](CCCCCC)CC3)ccc2c1`, 48 °C.
In the case of `CCOC(=O)CC(=O)c1cn(C(c2ccccc2)(c2ccccc2)c2ccccc2)cn1` it was 136 to 139 °C; in that of `COc1ccc2c3c1CCCC3C(CN1CCN(C)CC1)CC2` (stereo not drawn), 115 to 116 °C; in that of `Cc1[nH]c(-c2ccccc2)nc1-c1ccc(Cl)cc1Cl`, 222 to 224 °C.
In the case of `CCc1c(-c2ccccc2)c2c(COCCCN3CCCCC3)cc3c(O)ccc1n32` it was 93 to 99 °C.
Take `Cc1ccncc1C(O)c1ccc2cc(C(=O)OC(C)C)ccc2c1` (stereo not drawn): the melting point lay in the range of 180 to 183 °C.
With `CC(=O)c1c(-c2ccc(F)cc2)nn(CC2CC2)c(=O)c1Nc1cccc2cccnc12` the figure was 150 to 151 °C.
`C#CC1(COC(C)=O)OC(n2ccc(=O)[nH]c2=O)C(OC(C)=O)C1OC(C)=O` (stereo not drawn) gave a melting point of 160 to 162 °C.
Compound `O=Cc1cc([N+](=O)[O-])ccc1Sc1ccccc1` yielded a melting point of 96 to 100 °C.
In the case of `Cn1c(C(F)(F)C(F)(F)F)cc(=O)n(-c2cc(C(=O)O)c(Cl)cc2F)c1=O`, the melting point fell in the range of 229 to 231 °C.
With `CSc1nn2c(N(C)C)cc(C)nc2c1S(=O)(=O)c1ccc(Cl)cc1` the figure was 221 to 223 °C; with `Cc1cc(-c2cc(C(F)(F)F)n3cnc(-c4ccncc4)c3n2)ccc1Cl`, 254 °C; with `Cc1ncc(Cn2c(NC3CCN(CCNC(=O)c4cc5ccccc5n4C)CC3)nc3ccccc32)o1`, 104 °C.
With `CC1(C)Oc2ccc(C#N)cc2[C@@H](OC2=CC(=O)OC2)[C@@H]1O` (relative stereo) the figure was 111 to 114 °C; with `Cc1nccnc1C(=O)Nc1ccccc1-c1ccc(OC(F)(F)F)cc1`, 120 to 121 °C; with `CCCCC(=O)Nc1c(C(=O)OC)cccc1[N+](=O)[O-]`, 61 to 62 °C.
With `Cc1cc(Oc2cc(C(F)(F)F)nn2C)nc(C(=O)Nc2ccc(F)cc2)c1` the figure was 133 °C.
